Consider four molecules from US20120058920A1, “Method for Identifying Inhibitors Against Dengue Virus” (priority 2009, published 2012).

In this experiment the test system is dengue serotype 2. Put plainly: Antiviral assay (dengue serotype 2), CPE inhibition in Vero cells with ATPLite luminescence readout. The experiment is classed as cell-based, dengue virus. On the procedure:
3. Antiviral assays (dengue serotype 2)
15 μl of Vero cells (1500 cells/well) were added to a 384-well white plate containing 10 μl of four-fold serially diluted testing compound in cell culture medium with 2% FCS. 15 μl of virus stock was then added to each well at a MOI of 0.1. Cell controls received only cells and medium, while virus controls received virus but no test compound. Plates were incubated at 37° C. until the viral CPE in the virus control wells reached ˜100% (5-6 days). ATPLite (Perkin Elmer) was added to all wells according to the supplier's instructions. Briefly, 40 μl of the reconstituted lyophilized substrate solution was added to each well. The plate was shaken at 700 rpm for 2 minutes and the luminescence was measured using a Viewlux apparatus (Perkin Elmer) by taking a 0.1-0.5-second integrated reading of each test plate. The results were expressed as EC50 values defined as the concentration of compound achieving 50% inhibition of the virus-reduced luminescence signals as compared with the uninfected cell control. The signal-to-noise ratio of an assay is the ratio between the mean luminescent signals of the cell controls and the virus controls. The dynamic range is defined as the ratio between the signals at the last (maximal signal) and first point in the linear range of the dose-response curve.
Intra-assay reproducibility was measured by performing each experiment in three identical plates with each concentration of drug in triplicate. Inter-assay reproducibility was measured by performing three independent experiments at different times under the same experimental conditions.

Where [1] appears, read: Dengue virus, Vero, accuracy of the assay, value ± spread over many measurements (# data 42-54), read-out: EC50.
[2] abbreviates: Dengue virus, Vero cells 1500 cells/well, MOI 0.1, 5-6 days, ATPLite, Exp. # 1, read-out: EC50 (μM) Exp. # 1.
Where [3] appears, read: Dengue virus, Vero cells 1500 cells/well, MOI 0.1, 5-6 days, ATPLite, Exp. # 2, read-out: EC50 (μM) Exp. # 2.
Where [4] appears, read: Dengue virus, Vero cells 1500 cells/well, MOI 0.1, 5-6 days, ATPLite, Exp. # 3, read-out: EC50 (μM) Exp. # 3.
Where [5] appears, read: Dengue virus, Vero cells 1500 cells/well, MOI 0.1, 5-6 days, ATPLite, Exp. # 4, read-out: EC50 (μM) Exp. # 4.
The mark [6] stands for this setting: Dengue virus, Vero cells 1500 cells/well, MOI 0.1, 5-6 days, ATPLite, Exp. # 5, read-out: EC50 (μM) Exp. # 5.
Setting [7] is: Dengue virus, Vero cells 1500 cells/well, MOI 0.1, 5-6 days, ATPLite, Exp. # 6, read-out: EC50 (μM) Exp. # 6.
[8] abbreviates: Dengue virus, Vero cells 1500 cells/well, MOI 0.1, 5-6 days, ATPLite, Exp. # 7, read-out: EC50 (μM) Exp. # 7.

Read-outs that look alike come from different tables or passages of the source.

In general, EC50 refers to the concentration giving half of the maximal effect.

As to `C[C@@]1(O)[C@H](O)[C@@H](CO)O[C@H]1n1ccc(N)nc1=O` [2′-C-methylcytidine], the concentration giving a half-maximal response (EC50) runs as follows: under setting [1], 12.6 ± 3.32 µM; under setting [2], 13.5 µM; under setting [3], 14.6 µM; under setting [4], 10.3 µM; under setting [5], 10.4 µM; under setting [6], 6.73 µM. Further, the concentration giving a half-maximal response (EC50) under setting [7] is 14 µM and the EC50 under setting [8] came to 17.4 µM.
Take `O=c1cnn([C@@H]2O[C@H](CO)[C@@H](O)[C@H]2O)c(=O)[nH]1` [6-Azauridine]: the EC50 reads like this: under setting [1], 4.53 ± 0.83 µM; under setting [2], 5.52 µM; under setting [3], 4.85 µM; under setting [4], 3.74 µM; under setting [5], 4.26 µM; under setting [6], 4.6 µM. Further, the EC50 under setting [7] is 3.81 µM and the half-maximal effective concentration (EC50) under setting [8] worked out at 5.14 µM.
Take `NC(=O)c1ncn([C@@H]2O[C@H](CO)[C@@H](O)[C@H]2O)n1` [Ribavirin]: the EC50 by setting is: under setting [1], 53 ± 10.2 µM; under setting [2], 52 µM; under setting [3], 53.8 µM; under setting [4], 43.8 µM; under setting [5], 42.4 µM; under setting [6], 47.7 µM. The concentration for a half-maximal effect (EC50) came to 69 µM under setting [7] and 67.5 µM under setting [8].
Interferon-α: the 50% effective concentration (EC50) (accuracy of the assay, value ± spread over 30 measurements) is on record as 861.2 IU/ml ± 427.11.
